The nature of data set [1]: One-pot thiol-to-amine (S-to-N) bis-alkylation/conjugate addition/SNAr: Cys thiol and N-terminal secondary benzylamine (peptoid-type) bridged by bis-electrophile linkers 1-6 (8 equiv, 800 uM) after TCEP removal of the S-SO3H group (TCEP 400 uM, excess benzylamine 1.6 mM present). The settings on record: the molecule shown is the open-chain precursor, 60 mM aq NH4HCO3 pH 8 with about 5% DMSO, 0.1 mM, 37.0 °C, 3 steps, scale: %.

The target in the next data set is T1, human thrombin (Homo sapiens, UniProt P00734).
T1 construct: consists of two polypeptide chains of 259 (H-chain) and 37 amino acid residues; purchased Molecular Innovations
The experiment in a line: Determination of the inhibitory constants of purified macrocycles (thrombin, fluorogenic substrate Z-Gly-Gly-Arg-AMC). Format: biochemical. The settings on record: for Ki: purified macrocycle, 2 nM thrombin, 50 μM Z-Gly-Gly-Arg-AMC, Ki from IC50 by Cheng-Prusoff. As to the method:
Determination of the inhibitory constants of macrocycles
The IC50s of macrocycles were determined by measuring the residual activity of thrombin at different dilutions of macrocycle using a fluorogenic substrate. The reactions were performed in a volume of 150 µl in 96-well plates. A volume of 50 µl of 2-fold dilutions of macrocycle in assay buffer (10 mM Tris-Cl [pH 7.4], 150 mM NaCl, 10 mM MgCl2, 1 mM CaCl2, 0.1% w/v BSA, 0.01% v/v Triton-X100) were pipetted to the wells. A volume of 50 µl of thrombin (6 nM) in assay buffer was added to each well to reach a final concentration of 2 nM and was incubated for 15 min. A volume of 50 µl of the fluorogenic substrate Z-Gly-Gly-Arg-AMC (150 µM) in assay buffer containing 3% DMSO was added to reach a final substrate concentration of 50 µM and 1% DMSO. Fluorescence intensity was measured for 30 min using an Infinite M200Pro plate reader (Tecan; excitation at 368 nm, emission at 467 nm) with a read every minute.
Sigmoidal curves were fitted to the data using Prism 5 (GraphPad software) and the following dose- […]
wherein x is macrocycle concentration, y is % protease activity, and p is Hill slope. IC50 values were derived […]
The inhibitory constants (Ki) were calculated using the following equation of Cheng and Prusoff: […]
wherein IC50 is the functional strength of the inhibitor, [S]0 is the total substrate concentration, and Km is the Michaelis-Menten constant. The Km for thrombin and the substrate Z-Gly-Gly-Arg-AMC was determined to […]

The test system of data set [2] is panel of nine human proteases. The experiment in a line: Determination of target specificity against a panel of trypsin-like serine proteases. It counts as biochemical. The settings on record: panel of nine human proteases structurally and functionally most similar to thrombin. As to the method:
(§1) Determination of target specificity
(§2) The specificity was profiled by testing the inhibition of a panel of trypsin-like serine proteases using fluorogenic or chromogenic substrates. Dilutions of macrocycle were prepared ranging from 40 µM to 40 nM for all proteases except for thrombin (1 µM to 1 nM). The following final concentrations of human proteases were used: 2 nM thrombin (Molecular Innovations), 0.6 nM activated protein C (APC, Molecular Innovations), 1.5 nM uPA (Molecular Innovations), 0.25 nM plasma kallikrein (Innovative Research), 1 nM factor XIa (Innovative Research), 7.5 nM tPA (Molecular Innovations), 0.1 nM trypsin (Molecular Innovations), 3 nM factor XIIa (Molecular Innovations), and 2.5 nM plasmin (Molecular Innovations). […]
(§3) A volume of 50 µl of the substrate in assay buffer containing 3% DMSO was added. Fluorescence intensity was measured for 30 min using an Infinite M200Pro plate reader (Tecan; excitation at 368 nm, emission at 467 nm) with a read every minute. For APC protease, absorption was measured at 405 nm with the same plate reader for a period of 30 min with a read every minute. […] The inhibitory constants were calculated as described above. […]
(§4) Coagulation times were determined in human plasma using a STAGO STart4 coagulation analyzer (Diagnostica). […]
(§5) ball stopped moving was recorded as coagulation time. […]

The test system of data set [3] is human plasma. Briefly: Prothrombin time (PT), extrinsic coagulation pathway, in human plasma. It counts as biochemical. Conditions: EC2× = concentration for 2-fold increase in coagulation time. As to the method:
as §1, §2, §3, §4, §5

For data set [4], the system named is human plasma. The experiment in a line: Activated partial thromboplastin time (aPTT), intrinsic coagulation pathway, in human plasma. Format: biochemical. Conditions: EC2× = concentration for 2-fold increase in coagulation time. As to the method: as §1, §2, §3, §4, §5

For orientation: Ki means the dissociation constant of the complex between target and ligand, obtained from inhibition or displacement.

As for `NC(=O)[C@H](Cc1c[nH]c2ccccc12)NC(=O)CNC(=O)[C@H](CSCc1ccccc1CBr)NC(=O)CNC(=O)CNCc1ccccc1` [Bn-NH-CH2CO-Gly-Cys(SH)-Gly-Trp-NH2], the ring closure, conversion by HPLC in data set [1] (14-membered ring) is 32.
As to `NC(=O)[C@H](Cc1c[nH]c2ccccc12)NC(=O)CNC(=O)[C@H](CSCc1cccc(CBr)n1)NC(=O)CNC(=O)CNCc1ccccc1` [Bn-NH-CH2CO-Gly-Cys(SH)-Gly-Trp-NH2], the ring closure, conversion by HPLC in data set [1] (15-membered ring) was found to be 86.
Turning to `N=C(N)NCCCC1NC(=O)CC2CCCN2C(=O)CN(Cc2ccccc2CO)Cc2ccccc2CSCC(C(N)=O)NC1=O` (centres unmarked) [macrocycle 7], at human thrombin, the Ki was determined as 59 ± 6 nM.
Regarding `N=C(N)NCCC[C@@H]1NC(=O)C[C@@H]2CCCN2C(=O)CN(Cc2ccco2)Cc2ccccc2CSC[C@@H](C(N)=O)NC1=O` [macrocycle 61], at human thrombin, the inhibition constant (Ki) was found to be 520 ± 110 nM.
Consider `N=C(N)NCCC[C@@H]1NC(=O)C[C@H]2CCCN2C(=O)CN(Cc2ccco2)Cc2ccccc2CSC[C@@H](C(N)=O)NC1=O` [macrocycle 57], for which the Ki on human thrombin came to 10.6 ± 2 nM. Also, the “fold improvement of Ki over parental macrocycle 7” value on human thrombin (thrombin Ki relative to 7) was determined as 5.5 fold. Besides, the target selectivity entry in data set [2] is “high target selectivity”. The “fold better PT EC2× than parent 7” value in the data set on human plasma [3] is recorded as 1.9 fold. In addition, the “fold better aPTT EC2× than parent 7” value in the data set on human plasma [4] is on record as 1.4 fold.
As to `NC(=O)[C@H](Cc1c[nH]c2ccccc12)NC(=O)CNC(=O)[C@H](CSc1ncnc(Cl)n1)NC(=O)CNC(=O)CNCc1ccccc1` [Bn-NH-CH2CO-Gly-Cys(SH)-Gly-Trp-NH2], in data set [1] (13-membered ring), the ring closure, conversion by HPLC was 67.
At human thrombin, `N=C(N)NCCC[C@@H]1NC(=O)C[C@H]2CCCN2C(=O)CN(Cc2ccccc2CO)Cc2ccccc2CSC[C@@H](C(N)=O)NC1=O` [macrocycle 60] came in with a Ki of 95 ± 17 nM.
For the compound `C=CS(=O)(=O)CCSC[C@H](NC(=O)CNC(=O)CNCc1ccccc1)C(=O)NCC(=O)N[C@@H](Cc1c[nH]c2ccccc12)C(N)=O` [Bn-NH-CH2CO-Gly-Cys(SH)-Gly-Trp-NH2], the ring closure, conversion by HPLC in data set [1] (15-membered ring) came out at 93.
Turning to `C=CS(=O)(=O)CS(=O)(=O)CCSC[C@H](NC(=O)CNC(=O)CNCc1ccccc1)C(=O)NCC(=O)N[C@@H](Cc1c[nH]c2ccccc12)C(N)=O` [Bn-NH-CH2CO-Gly-Cys(SH)-Gly-Trp-NH2], the ring closure, conversion by HPLC in data set [1] (17-membered ring) is 41.
For `NC(=O)[C@H](Cc1c[nH]c2ccccc12)NC(=O)CNC(=O)[C@H](CSCc1ccc(CBr)cc1)NC(=O)CNC(=O)CNCc1ccccc1` [Bn-NH-CH2CO-Gly-Cys(SH)-Gly-Trp-NH2], the ring closure, conversion by HPLC in data set [1] (16-membered ring) stood at 18.

For the origin of these results see article PMC8163216, “Macrocycle synthesis strategy based on step-wise “adding and reacting” three components enables screening of large combinatorial libraries” (Chemical Science, 2020).
